Assay results from patent publication US6541978B1, “Method, system and device for producing signals from a substance biological and/or chemical activity” (priority 1998, dated 2003).
Several values for one entry are separate records, joined by “and”; a condition that tells them apart may be missing. Equal values may be shown once.

Experiments:
[1] = system: isolated guinea-pig heart; experiment: Perfused isolated guinea-pig heart (Langendorff), injections of the substances; conditions: injection of substance 10^−6M
Text: As an example of a biological control system, an d referring to FIG. 2, a test will be described below derived from that known under the test name of a perfused isolated guinea-pig heart (or Langendorff experiment) and whose process is described in the work entitled: “Methods in Immunology and Immunochemistry” published by Williams and Chase, Academic Press 1976, particularly page 68; or further in the work entitled: “L'experimentation animate en cardiologie” INSERM Médecine-Science—Coll. Flammarion—Author Bernard […]—particularly Ch. 3.1 p.81 “Organe Isolé—Coceur Isolé selon Langendorff—Montage à pression coronaire constante”; or further in the work entitled “The isolated perfused Heart according to Langendorff” H. J. Döiring, H. Dehnart—Biomesstechnik—Verlag March GmbH, D-7806 March. In FIG. 2 one recognises the diagram known from the Langendorff experiment. The equipment described in these works has been completed by a transducer in the form of a bobbin 60 of a varnished copper wire of diameter 0.5 mm, with a diameter of 110 mm, a length of 40 mm and with an impedance of 4 ohms.
The fraction collector collected the tubes making it possible to measure the debit of the guinea-pig heart at the rate of 1 tube per minute. The buffer solution crossing the heart had the following composition: CaCl 2 mM, NaHCO3 25 mM, NaCl 118 mM, MgSO4 1.2 mM, KHPO4 1.2 mM, Glucose 11 mM, Pyruvate 2 mM.

skin of a guinea-pig = experiment: Guinea-pig cutaneous test (Evans blue marks); type: in vivo; conditions: 0.1 ml ponderal solution at 10^−6M injected under the skin; single injections
Text: As an example, with reference to FIG. 4, a presentation is given below of the test known under the name of guinea-pig cutaneous test and described in chapter 11 (p.346-351) in the second edition of “Immunology” edited by Jean-Francois Bach, coll. John Wiley & Sons; or further in the 3rd edition of “The handbook of Experimental Immunology” edited by D. M. Weir, coll. Blackwell, Ch. 21 “Passive cutaneous anaphylaxis (PCA)” by W. E. Brocklehurst; or further in the work edited by Williams & Chase entitled “Methods in IMMUNOLOGY and IMMUNOCHEMISTRY”—Vol. 5—Ch. 19 “Anaphylaxis”.
The guinea-pig is used when still alive, and is given a n intravenous injection of a blue colorant (Evans blue—Sigma E 2129) which fixes on the blood albumin.
The test is carried out by injecting under the skin of the animal prepared in this way, 0.1 ml of the solution whose activity is to be controlled. Nextone measures the diameter of the blue marks appearing around the points of injection. In order to do this the skin is scanned, and then the bitmap image file is recorded. Finally the sizes of the blue marks due to the reaction are evaluated.
In the example described, a control was carried out of the presence of signals characteristic of the biological activity of the acetylcholine neuromediator (ACh; Sigma A2661) in solution in a physiological solution, by analysing the effects o n the skin of a guinea-pig: […]

| Structure (SMILES) | quantity of the buffer solution recuperated in the collector tubes ([1]; time 1 min) [mL] | quantity of the buffer solution recuperated in the collector tubes ([1]; time 2 min) [mL] | quantity of the buffer solution recuperated in the collector tubes ([1]; time 3 min) [mL] | quantity of the buffer solution recuperated in the collector tubes ([1]; time 4 min) [mL] | quantity of the buffer solution recuperated in the collector tubes ([1]; time 5 min) [mL] | quantity of the buffer solution recuperated in the collector tubes ([1]; time 6 min) [mL] | quantity of the buffer solution recuperated in the collector tubes ([1]; time 7 min) [mL] | quantity of the buffer solution recuperated in the collector tubes ([1]; time 8 min) [mL] | quantity of the buffer solution recuperated in the collector tubes ([1]; time 9 min) [mL] | quantity of the buffer solution recuperated in the collector tubes ([1]; time 10 min) [mL] | quantity of the buffer solution recuperated in the collector tubes ([1]; time 11 min) [mL] | quantity of the buffer solution recuperated in the collector tubes ([1]; time 12 min) [mL] | quantity of the buffer solution recuperated in the collector tubes ([1]; time 13 min) [mL] | quantity of the buffer solution recuperated in the collector tubes ([1]; time 14 min) [mL] | quantity of the buffer solution recuperated in the collector tubes ([1]; time 15 min) [mL] | quantity of the buffer solution recuperated in the collector tubes ([1]; time 20 min) [mL] | quantity of the buffer solution recuperated in the collector tubes ([1]; time 25 min) [mL] | quantity of the buffer solution recuperated in the collector tubes ([1]; time 30 min) [mL] | Dia. in mm (diameter of the blue marks around the points of injection) (skin of a guinea-pig) |
| --- | --- | --- | --- | --- | --- | --- | --- | --- | --- | --- | --- | --- | --- | --- | --- | --- | --- | --- | --- |
| Cn1c(=O)c2c(ncn2C)n(C)c1=O [caffeine] | 5.1 | 5.0 | 5.0 | 4.9 | 4.6 | 4.2 | 4.0 | 4.1 | 4.0 | 4.2 | 4.1 | 4.3 | 4.4 | 4.5 | 4.5 | 4.6 | 4.5 | 4.5 | – |
| CC(=O)OCC[N+](C)(C)C [ACh, acetylcholine] | – | – | – | – | – | – | – | – | – | – | – | – | – | – | – | – | – | – | 23 mm and 25 mm and 21 mm and 18 mm |
| CNc1ccc2oc(C[C@H]3O[C@@]4(CC[C@H]3C)O[C@H]([C@H](C)C(=O)c3ccc[nH]3)[C@H](C)C[C@H]4C)nc2c1C(=O)O [ionophoretic-calcium, ionophoretic-calcium A 23187] | 5.1 | 5.0 | 5.2 | 5.0 | 4.9 | 5.4 | 5.6 | 6.2 | 6.4 | 6.4 | 6.2 | 6.0 | 6.0 | 5.9 | 6.0 | 5.7 | 5.4 | 5.2 | – |
